Where two headings read alike, the source gives them in different places. Starred links: 1 amine or outer side, 2 acyl side, 3 side chain; linkers in the order of their positions; H or OH if unused. Positions of bridges follow the written chain, without caps; N, C: chain ends. Non-standard residues stand in square brackets, D forms with d. Residues, ends and D or L forms follow the SMILES beside them. *: point of attachment. X2 = O=C(O)CN1CCN(CC(=O)O)CCN(CC(=O)NCCOCCOCCOCCOCC(=O)*)CCN(CC(=O)O)CC1; Ala(piperidin-4-yl) = O=C([C@H](CC1CCN([*:3])CC1)N[*:1])[*:2]; DOTA = O=C(O)CN1CCN(CC(=O)O)CCN(CC(=O)*)CCN(CC(=O)O)CC1; Trp(5-F) = N[C@@H](Cc1c[nH]c2ccc(F)cc12)C(=O)O; X1 = C[C@@H](c1ccccc1)[C@H](N[*:1])C(=O)[*:2]; 1Nal = N[C@@H](Cc1cccc2ccccc12)C(=O)O; Ala(4-THP) = N[C@@H](CC1CCOCC1)C(=O)O; Val(3-OH) = CC(C)(O)[C@H](N)C(=O)O; 4Pal = N[C@@H](Cc1ccncc1)C(=O)O; Tle = CC(C)(C)[C@H](N)C(=O)O; hLeu = CC(C)CC[C@H](N)C(=O)O; Sar = CNCC(=O)O
Key:
Calu-6 cell line [1] = assay: Net internalization of [177Lu]Lu-labeled peptide in Calu-6 cells; assay type: cell-based, Human; settings: 1 hour, 37° C., glycine pH 2.5 acid wash
Method: (§1) [^177Lu]LuCl3 was received from venders in HCl solution. For every mCi of [^177Lu]LuCl3 added to the reaction vial (1.5 mL Eppendorf vial), ammonium acetate buffer (0.2 M, pH 4.9, 100 μL, containing 1% w/v ascorbic acid and 6% v/v ethanol) and peptide conjugate (1 nmol) was added. The pH of the solution was determined to be approximately 5 by using pH strips. The reaction vial was incubated at 80° C., 700 RPM for 17-20 minutes. A sample from the reaction was analyzed by RP-HPLC using an Agilent Infinity II 1260 HPLC to determine reaction completion and radiochemical purity. HPLC conditions: Waters XBridge BEH C18 Column, 130 Å, 3.5 μm, 4.6 mm×250 mm; mobile phase: Solvent A=water (with 0.1% formic acid), solvent B=acetonitrile (with 0.1% formic acid). Gradients: 25-45% B in 10 minutes, 45-65% B in 12 minutes, 65-90% in 6 minutes at a flow rate of 0.5 mL/minute. Required amounts of the product were formulated in 1% PBSA for cell studies.
(§2) The study was conducted using Calu-6 cell line (Table 8)
(§3) Adherent cell studies: The cells were cultured in appropriate culture media (20 mL) in tissue culture treated T150 flasks at 37° C. and 5% CO2. Adherent cells were detached (60-70% confluent) using 5 mL Versene at 37° C. for 3 minutes. After confirming the viability using countess and count of detached cells using Trypan blue, the cells were centrifuged at 4° C. for 5 minutes (1,000 revolutions per minute). The cell pellet obtained was washed once with PBS and resuspended in 1% PBSA to obtain the desired cell concentration (5 million cells/mL).
Net internalization: The resuspended cells in 300 μl of 1% PBSA and counted in the gamma counter as “bound fraction” were collected in 1.5 mL Eppendorf tube and pelleted. The pelleted cells were incubated with 300 μl of 50 mM Glycine pH=2.5 for 3 minutes and then pelleted discarding the supernatant. This process was repeated one more time. The pelleted cells were washed with 300 μl of cold 1% PBSA and then resuspended in 300 μl 0.3 M NaOH. This was counted in the gamma counter as “internalized fraction”.
(§4) Calu-6 Cells are Human-Derived, Non-Engineered Lung Cancer Cell that Express B7-H3.

Calu-6 cell line [2] = assay: Cell associated (bound) fraction of [177Lu]Lu-labeled peptide in Calu-6 cells; assay type: cell-based, Human; settings: 1 hour, 37° C.
Method: as §1, §2, §3
Cell associated fraction: Cells were incubated with 300 μL (0.8 μCi) of the incubation buffer (containing radiolabeled peptide [^177Lu]Lu-test peptide) for 1 hour at 37 C (Table 9). Post incubation, the cells were pelleted and washed 2 times using cold PBS+1% BSA. The supernatant and washes were combined and counted together as “unbound fraction” in a gamma counter. The cells were then resuspended in 300 μL of 1% PBS+1% BSA and counted in the gamma counter as cell associated fraction (or bound fraction).
as §4

human 4lg B7-H3 = biological target: T1, human 4lg B7-H3 (Homo sapiens, UniProt Q5ZPR3); assay: Affinity determination by surface plasmon resonance (SPR) to 4Ig B7-H3; settings: 4Ig B7-H3
T1 sequence (Q5ZPR3 29-534): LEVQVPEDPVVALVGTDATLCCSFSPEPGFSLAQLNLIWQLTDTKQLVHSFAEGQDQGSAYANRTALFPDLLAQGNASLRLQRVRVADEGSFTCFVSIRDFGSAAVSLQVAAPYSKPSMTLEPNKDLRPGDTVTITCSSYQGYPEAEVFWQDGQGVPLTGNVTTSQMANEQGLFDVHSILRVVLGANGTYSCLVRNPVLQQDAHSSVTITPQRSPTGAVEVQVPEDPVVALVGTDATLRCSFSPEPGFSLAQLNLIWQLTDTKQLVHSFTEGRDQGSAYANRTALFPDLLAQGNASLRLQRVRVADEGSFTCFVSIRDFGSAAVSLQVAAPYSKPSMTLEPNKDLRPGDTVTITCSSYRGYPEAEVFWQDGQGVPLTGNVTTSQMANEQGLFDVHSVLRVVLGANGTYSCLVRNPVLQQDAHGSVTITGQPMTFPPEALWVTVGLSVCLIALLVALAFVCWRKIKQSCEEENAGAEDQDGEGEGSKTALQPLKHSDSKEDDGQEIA

[3] = SPR KD—25° C., 25° C. flow cell temperature
[4] = SPR KD—37° C., 37° C. flow cell temperature
[5] = read-out: SPR KD—25° C., 25° C. flow cell temperature

SMILES	% net internalization (Calu-6 cell line [1])	% cell associated fraction (Calu-6 cell line [2])	Kd (human 4lg B7-H3; [3])	Kd (human 4lg B7-H3; [4])	Kd (human 4lg B7-H3; [5])	Kd (human 4lg B7-H3; read-out: SPR KD—37° C., 37° C. flow cell temperature)
CC[C@H](C)[C@@H]1NC(=O)[C@@H](NC(=O)[C@H](Cc2ccc(O)cc2)NC(=O)[C@H](CCC(C)C)NC(C)=O)CSSC[C@@H](C(=O)N[C@@H](Cc2c[nH]c3ccc(F)cc23)C(=O)N[C@@H](Cc2ccccc2)C(=O)N[C@H](C(=O)N[C@H](CCCCNC(=O)COCCOCCOCCOCCNC(=O)CN2CCN(CC(=O)O)CCN(CC(=O)O)CCN(CC(=O)O)CC2)C(=O)O)C(C)(C)O)NC(=O)[C@H](Cc2ccc(O)cc2)NC(=O)[C@H](C(C)C)NC(=O)[C@H](CC(=O)O)NC(=O)[C@H](CC2CCOCC2)NC(=O)[C@H](CCCCN)NC(=O)CNC1=O [compound 308, Ac-hLeu-Y-C-Ile-G-K-ThpA-D-V-Y-C-5FW-F-hydroxyVal-dLys(PEG4-DOTA)-COOH] (Ac-[hLeu]YCIGK[Ala(4-THP)]DVYC[Trp(5-F)]F[Val(3-OH)][dK](X2)-OH; disulfide 3-11)	B (25<%≤50)	C (%>50)	< 1 nM	–	–	–
CC(=O)N[C@@H](CCC(C)C)C(=O)N[C@@H](Cc1ccc(O)cc1)C(=O)N[C@H]1CSSC[C@@H](C(=O)N[C@@H](Cc2c[nH]c3ccc(F)cc23)C(=O)N[C@H](C(=O)N[C@H](C(=O)N[C@H](CCCCNC(=O)CN2CCN(CC(=O)O)CCN(CC(=O)O)CCN(CC(=O)O)CC2)C(=O)O)C(C)(C)O)[C@@H](C)c2ccccc2)NC(=O)[C@H](Cc2ccc(O)cc2)NC(=O)[C@H](C(C)C)NC(=O)[C@H](CC(=O)O)NC(=O)[C@H](CC2CCOCC2)NC(=O)[C@H](CC2CCNCC2)NC(=O)CNC(=O)[C@H](C(C)(C)C)NC1=O [compound 433, Ac-hLeu-Y-C-Tbg-G-PipAla-ThpA-D-V-Y-C-5FW-[(2S, 3S)beta-Me-Phe]-hydroxyVal-dLys(DOTA)-COOH] (Ac-[hLeu]YC[Tle]G[Ala(piperidin-4-yl)][Ala(4-THP)]DVYC[Trp(5-F)][X1][Val(3-OH)][dK](DOTA)-OH; disulfide 3-11)	B (25<%≤50)	C (%>50)	–	< 1 nM	–	–
CC[C@H](C)[C@@H]1NC(=O)[C@@H](NC(=O)[C@H](Cc2ccc(O)cc2)NC(=O)[C@H](CCC(C)C)NC(C)=O)CSSC[C@@H](C(=O)N[C@@H](Cc2c[nH]c3ccc(F)cc23)C(=O)N[C@@H](Cc2ccccc2)C(=O)N[C@H](C(N)=O)C(C)(C)O)NC(=O)[C@H](Cc2ccc(O)cc2)NC(=O)[C@H](C(C)C)NC(=O)[C@H](CC(=O)O)NC(=O)[C@H](Cc2ccncc2)NC(=O)[C@H](CCCCNC(=O)CN2CCN(CC(=O)O)CCN(CC(=O)O)CCN(CC(=O)O)CC2)NC(=O)CNC1=O [compound 230, Ac-hLeu-Y-C-Ile-G-Lys(DOTA)-4PyA-D-V-Y-C-5FW-F-hydroxyVal-CONH2] (Ac-[hLeu]YCIGK(DOTA)[4Pal]DVYC[Trp(5-F)]F[Val(3-OH)]-NH2; disulfide 3-11)	A (%≤25)	B (25<%≤50)	< 1 nM	–	–	–
CC(=O)N[C@@H](CCC(C)C)C(=O)N[C@@H](Cc1ccc(O)cc1)C(=O)N[C@H]1CSSC[C@@H](C(=O)N[C@@H](Cc2c[nH]c3ccc(F)cc23)C(=O)N[C@@H](Cc2ccccc2)C(=O)N2CCC[C@H]2C(=O)N[C@H](CCCCNC(=O)CN2CCN(CC(=O)O)CCN(CC(=O)O)CCN(CC(=O)O)CC2)C(N)=O)NC(=O)[C@H](Cc2ccc(O)cc2)NC(=O)[C@H](C(C)C)NC(=O)[C@H](CC(=O)O)NC(=O)[C@H](Cc2ccc(O)cc2)NC(=O)[C@H](CCCCN)NC(=O)CNC(=O)[C@H](C(C)C)NC1=O [compound 160, Ac-hLeu-Y-C-V-G-K-Y-D-V-Y-C-5FW-F-Pro-dLys(DOTA)-CONH2] (Ac-[hLeu]YCVGKYDVYC[Trp(5-F)]FP[dK](DOTA)-NH2; disulfide 3-11)	A (%≤25)	B (25<%≤50)	–	–	< 1 nM	–
CC(=O)N[C@@H](CCC(C)C)C(=O)N[C@@H](Cc1ccc(O)cc1)C(=O)N[C@H]1CSSC[C@@H](C(=O)N[C@@H](Cc2c[nH]c3ccc(F)cc23)C(=O)N[C@@H](Cc2ccccc2)C(=O)N[C@H](C(N)=O)C(C)(C)O)NC(=O)[C@H](Cc2ccc(O)cc2)NC(=O)[C@H](C(C)C)NC(=O)[C@H](CC(=O)O)NC(=O)[C@H](CC2CCOCC2)NC(=O)[C@H](CCCCNC(=O)CN2CCN(CC(=O)O)CCN(CC(=O)O)CCN(CC(=O)O)CC2)NC(=O)CNC(=O)[C@H](C(C)(C)C)NC1=O [compound 338, Ac-hLeu-Y-C-Tbg-G-Lys(DOTA)-ThpA-D-V-Y-C-5FW-F-hydroxyVal-CONH2] (Ac-[hLeu]YC[Tle]GK(DOTA)[Ala(4-THP)]DVYC[Trp(5-F)]F[Val(3-OH)]-NH2; disulfide 3-11)	A (%≤25)	B (25<%≤50)	–	–	–	1 to 10 nM
CC(=O)N[C@@H](CCC(C)C)C(=O)N[C@@H](Cc1ccc(O)cc1)C(=O)N[C@H]1CSSC[C@@H](C(=O)N[C@@H](Cc2cccc3ccccc23)C(=O)N[C@@H](Cc2ccccc2)C(=O)N[C@H](C(=O)N[C@H](CCCCNC(=O)CN2CCN(CC(=O)O)CCN(CC(=O)O)CCN(CC(=O)O)CC2)C(=O)O)C(C)(C)O)NC(=O)[C@H](Cc2ccc(O)cc2)NC(=O)[C@H](C(C)C)NC(=O)[C@H](CC(=O)O)NC(=O)[C@H](CC2CCOCC2)NC(=O)[C@H](CC2CCNCC2)NC(=O)CNC(=O)[C@H](C(C)(C)C)NC1=O [compound 436, Ac-hLeu-Y-C-Tbg-G-PipAla-ThpA-D-V-Y-C-1Nal-F-hydroxyVal-dLys(DOTA)-COOH] (Ac-[hLeu]YC[Tle]G[Ala(piperidin-4-yl)][Ala(4-THP)]DVYC[1Nal]F[Val(3-OH)][dK](DOTA)-OH; disulfide 3-11)	A (%≤25)	B (25<%≤50)	–	< 1 nM	–	–
CC(=O)N[C@@H](CCC(C)C)C(=O)N[C@@H](Cc1ccc(O)cc1)C(=O)N[C@H]1CSSC[C@@H](C(=O)N[C@@H](Cc2c[nH]c3ccc(F)cc23)C(=O)N[C@@H](Cc2ccccc2)C(=O)N[C@H](C(=O)N[C@H](CCCCNC(=O)CN2CCN(CC(=O)O)CCN(CC(=O)O)CCN(CC(=O)O)CC2)C(N)=O)[C@@H](C)O)NC(=O)[C@H](Cc2ccc(O)cc2)NC(=O)[C@H](C(C)C)NC(=O)[C@H](CC(=O)O)NC(=O)[C@H](Cc2ccc(O)cc2)NC(=O)[C@H](CCCCN)NC(=O)CNC(=O)[C@H](C(C)C)NC1=O [compound 73, Ac-hLeu-Y-C-V-G-K-Y-D-V-Y-C-5FW-F-Thr-dLys(DOTA)-CONH2] (Ac-[hLeu]YCVGKYDVYC[Trp(5-F)]FT[dK](DOTA)-NH2; disulfide 3-11)	A (%≤25)	C (%>50)	–	–	< 1 nM	–
CC(=O)N[C@@H](CCC(C)C)C(=O)N[C@@H](Cc1ccc(O)cc1)C(=O)N[C@H]1CSSC[C@@H](C(=O)N[C@@H](Cc2c[nH]c3ccccc23)C(=O)N[C@@H](Cc2ccccc2)C(=O)N[C@H](C(=O)N[C@H](CCCCNC(=O)CN2CCN(CC(=O)O)CCN(CC(=O)O)CCN(CC(=O)O)CC2)C(N)=O)[C@@H](C)O)NC(=O)[C@H](Cc2ccc(O)cc2)NC(=O)[C@H](C(C)C)NC(=O)[C@H](CC(=O)O)NC(=O)[C@H](Cc2ccc(O)cc2)NC(=O)[C@H](CCCCN)NC(=O)CN(C)C(=O)[C@H](C(C)C)NC1=O [compound 74, Ac-hLeu-Y-C-V-Sar-K-Y-D-V-Y-C-W-F-Thr-dLys(DOTA)-CONH2] (Ac-[hLeu]YCV[Sar]KYDVYCWFT[dK](DOTA)-NH2; disulfide 3-11)	A (%≤25)	B (25<%≤50)	–	–	1 to 10 nM	–
